Results reported in patent publication US20010044404A1, “Cleaning process and composition” (3M Innovative Properties Company, priority 1995, published 2001).

Columns and labels:
[1] = Flash point testing ASTM D3278-89; assay type: physicochemical
Method: The alkoxy-substituted perfluorocompounds C4F9OCH3, C4F9OC2H5, and c-C6F11OCH3 were tested for flash point by the standard method defined by ASTM D3278-89.

[2] = Mineral oil removal from aluminum coupon, sonication in solvent; details: sonicated 1 minute
Method: In the following Examples and Comparative Examples, the cleaning ability of the alkoxy-substituted perfluorocompounds used in the cleaning process of the invention was further evaluated. A 1.28 cm×1.28 cm×0.225 cm wire-wrapped, aluminum coupon was coated with white heavy mineral oil (available from Aldrich Chemical) by immersing the coupon in an oil-filled beaker. The initial amount of the oil on the coupon was determined by weighing it on an analytical balance to the nearest 0.1 mg. The coupon was immersed in a container of solvent and sonicated for 1 minute at the indicated temperature (see Table 3 below for the solvents and temperatures used). The coupon was then weighed again, and the results were recorded in Table 3 as percent oil removal.

[3] = Paraffinic oil removal: solvating agent, then rinse in boiling solvent; details: methyl caproate/dipropylene glycol di-n-butyl ether 30 seconds, boiling rinse 30 seconds
Method: The above-described test coupon was dipped into a paraffinic oil comprising a mixture of linear and branched hydrocarbons (DuoSeal Pump Oil, available from Sargent Welch), was immersed in mixed solvating agent comprising approximately 50% methyl caproate and 50% dipropylene glycol di-n-butyl ether for 30 seconds, and was then rinsed in boiling alkoxy-substituted perfluorocompound for 30 seconds. The percent oil removal was determined in the above-described manner.

[4] = Mineral oil removal with boiling methyl decanoate/perfluorocompound mixture; details: boiling mixture 40 volume % methyl decanoate, 60 volume % perfluorocompound
Method: The above-described test coupon was dipped in white heavy mineral oil (available from Aldrich Chemical), was immersed in a boiling single-phase mixture of 40 volume % of a solvating agent comprising essentially methyl decanoate and 60 volume % of alkoxy-substituted perfluorocompound (a cleaning composition of the invention) for 60 seconds, was cooled for 60 seconds, and was then immersed in mixture vapor for 30 seconds. The percent oil removal was determined in the above-described manner.

[5] = Pump oil removal in vapor of boiling n-C6H14/perfluorocompound mixture; details: vapor of boiling 40 volume % n-C6H14, 60 volume % fluorinated component; 60 seconds
Method: The above-described test coupon was dipped into DuoSeal Pump Oil (available from Sargent-Welch) and was then immersed in the vapor of a boiling mixture of 40 volume % n-C6H14 and 60 volume % alkoxy-substituted perfluorocompound (a cleaning composition of the invention), for 60 seconds. The percent oil removal was determined in the above-described manner.

[6] = Open cup flash point ASTM D1310-86; assay type: physicochemical
Method: (§1) Various properties were measured for C4F9OCH3, CHClFCF2OCH3, and blends of each ether compound with cosolvent, trans-1,2-dichloroethylene (hereinafter, t-DCE) or n-butyl bromide, at various weight ratios.

[7] = Closed cup flash point ASTM D3278-96; assay type: physicochemical
Method: as §1

[8] = Solvency properties: largest normal hydrocarbon alkane soluble at 50 percent by volume
Method: A number of potential solvents were tested for their ability to dissolve hydrocarbons of increasing molecular weight according to the procedure described in U.S. Pat. No. 5,275,669 (Van Der Puy et al.), the description of which is incorporated herein by reference. The data shown in Table 1 were obtained by determining the largest normal hydrocarbon alkane which was soluble in a particular solvent at a level of 50 percent by volume. The numbers in the Table correspond with the carbon number of the largest alkane, e.g., “8” refers to octane. Measurements were made from room temperature up to the boiling point of the solvent. For comparative purposes, hydrofluorocarbons (HFCs) and perfluorocarbons (PFCs) were also tested using this method.
Using essentially the above-described method, the solvency properties of other alkoxy-substituted perfluorocompounds were tested at room temperature.

[9] = 20 weight % ether, 80 % n-butyl bromide
[10] = 30 weight % ether, 70 % n-butyl bromide
[11] = 50 weight % ether, 50 % n-butyl bromide
[12] = 80 weight % ether, 20 % n-butyl bromide

## COC(F)(F)C(F)(F)C(F)(F)C(F)(F)F [Example C4F9OCH3, perfluorobutyl methyl ether]
[1]
  Flash point: no flash point
[2]; 23 ° C.
  percent oil removal: 60.3%
[2]; 50 ° C.
  percent oil removal: 98.7%
[2]; 60 ° C.
  percent oil removal: 99.9%
[3]
  Percent Soil Removed: 99.8%
[4]
  Percent Soil Removed: 94.61%
[5]
  Percent Soil Removed: 90.8%
[6]; 20 weight % ether, 80 % t-DCE
  Open Cup Flash Point (ASTM D1310-86): none
[6]; 50 weight % ether, 50 % t-DCE
  Open Cup Flash Point (ASTM D1310-86): none
[6]; 80 weight % ether, 20 % t-DCE
  Open Cup Flash Point (ASTM D1310-86): none
[6]; 100 weight % ether, 0 % t-DCE
  Open Cup Flash Point (ASTM D1310-86): none
[7]; [9]
  Closed Cup Flash Point (ASTM D3278-96): none^4
[7]; [10]
  Closed Cup Flash Point (ASTM D3278-96): none^4
[7]; [11]
  Closed Cup Flash Point (ASTM D3278-96): none^4
[7]; [12]
  Closed Cup Flash Point (ASTM D3278-96): none^4
[7]; 100 weight % ether, 0 % n-butyl bromide, raised to 140° F. (60° C.)
  Closed Cup Flash Point (ASTM D3278-96): none^4
[8]; [9]
  Largest Carbon Number of Longest Hydrocarbon Alkane to Dissolve: 21
[8]; 20 weight % ether, 80 % t-DCE
  Largest Carbon Number of Longest Hydrocarbon Alkane to Dissolve: 22
[8]; [10]
  Largest Carbon Number of Longest Hydrocarbon Alkane to Dissolve: 21
[8]; [11]
  Largest Carbon Number of Longest Hydrocarbon Alkane to Dissolve: 15
[8]; 50 weight % ether, 50 % t-DCE
  Largest Carbon Number of Longest Hydrocarbon Alkane to Dissolve: 16
[8]; [12]
  Largest Carbon Number of Longest Hydrocarbon Alkane to Dissolve: 11
[8]; 80 weight % ether, 20 % t-DCE
  Largest Carbon Number of Longest Hydrocarbon Alkane to Dissolve: 11
[8]; 100 weight % ether, 0 % n-butyl bromide
  Largest Carbon Number of Longest Hydrocarbon Alkane to Dissolve: 9
[8]; 100 weight % ether, 0 % t-DCE
  Largest Carbon Number of Longest Hydrocarbon Alkane to Dissolve: 9
